Where “and” joins values, the source holds several entries; their conditions need not be identical. Identical values can stand only once.
What was measured:
[1] = Cloud point determination (solubility in ZnBr2 solution); details: for Solubility in ZnBr2 Cloud Point: 0.7 M quat in 2.5M Zinc Bromide water solution
Experimental: By “cloud point” is meant the cloud point of an aqueous solution containing 0.7 M complexing agent and 2.5 M zinc bromide.
A 0.7M quaternary ammonium bromide in 2.5M Zinc Bromide water solution was prepared. • 2. The solution was transferred to a jacketed flask with a stirring bar and temperature monitor. • 3. The solution was warmed to 15° C. above the expected cloud point. If necessary, any moisture or impurities were removed by filtration. • 4. The solution was stirred, with speed adjustment to about 250 rpm, while avoiding the formation of bubbles. • 5. The solution was cooled gradually (cooling rate of about 1° C./5 min). • 6. The sample was inspected carefully for signs of cloudiness, and the temperature at which cloudiness was observed was recorded to the nearest 0.1° C.

[2] = Measurement of free bromine in aqueous phase; assay type: physicochemical; details: stirred 24 hrs, top aqueous phase, wt %
Text: The forward operation of a bromine-containing battery generally involves the conversion of elemental bromine to ionic bromine. The quat/Br2 complex results from an equilibrium reaction in which the Br2 is released from the complex as the concentration of free Br2 in the aqueous electrolyte drops during battery operation. In its fully charged state, the electrolyte solution inevitably contains some degree of uncomplexed bromine. A measure of a quat's ability to complex elemental bromine is the amount of elemental bromine left in solution when the complexation reaction proceeds to equilibrium. Such bromine is referred to as “free bromine.” Measurement of free bromine in aqueous phase is set forth in Example 1.
Two slightly different methods were used to prepare the electrolyte compositions, A) one containing 0.7M quat and B) the other containing 0.8M quat. In composition A, 2.0 moles of bromine was added to an aqueous solution containing 0.5 moles of zinc bromide and 0.7 moles of the quat. The two-phase mixture was stirred for 24 hrs. and then the phases were allowed to settle. The top aqueous phase was sampled for free bromine measurement. In composition B, 1.44 moles of bromine was added to an aqueous solution containing 0.5 moles of zinc bromide, 0.4 moles of zinc chloride and 0.8 moles of the quat. The top aqueous phase obtained after stirring for 24 hrs. was used for free bromine measurement.
A 250-ml Erlenmeyer flask was charged with 50 ml of deionized water and weighed (A). A sample of the clear aqueous phase was passed through glass wool to remove any suspended organic phase and then added to the Erlenmeyer flask. The flask was weighed again (B) and the difference in weight (B-A) was noted as the weight of the sample. About 20 ml of 20% potassium iodide solution followed by about 5 ml of starch solution was added to the flask. The resulting dark mixture was titrated against 0.02N sodium thiosulfate solution. The end-point was the disappearance of purple color. Free bromine (wt %) was calculated in the following manner:
Wt % free Br2=Volume (ml) of sodium Thiosulfate×Normality of Sodium thisosulfate/Sample Weight.

[3] = Free bromine in electrolyte with chloroquat or bromoquat (Example 8); assay type: physicochemical; details: 0.84 M zinc bromide, 0.8 M quat, 1.44 M bromine; stirred for 24 hrs at 35° C.
Experimental: Chloride ions are added to the electrolyte in amounts sufficient to reduce the amount of free bromine present and increase the electrolyte conductivity during charging of the cell. Chloride ions in the electrolyte may come from zinc chloride or quaternary ammonium chloride complexing agent.
Experiment 1 of Example 8: An aqueous electrolyte system was prepared having 0.84 M zinc bromide, 0.8 NI chloroquat (N-methyl, N-butyl pyrrolidinium chloride) and 1.44 M bromine. After the sample was stirred for 24 hrs at 35° C., the amount of free bromine present in the electrolyte was 0.26%.
Experiment 2 of Example 8: An aqueous electrolyte system was prepared having 0.84 M zinc bromide, 0.8 M bromoquat (N-methyl, N-butyl pyrrolidinium bromide) and 1.44 NI bromine. After the sample was stirred for 24 hrs at 35° C., the amount of free bromine present in the electrolyte was 0.25%.

[4] = 0.7 M quat (composition A: 0.5 moles zinc bromide, 2.0 moles bromine)
[5] = 0.8 M quat (composition B: 0.5 moles zinc bromide, 0.4 moles zinc chloride, 1.44 moles bromine)

CCCC[N+](C)(C)CCOC.[Br-] [Compound 1, Dimethylbutylether Quat Bromide]
Solubility in ZnBr2 Cloud Point [1]: 0.7 M, 29 C. | Free Br2 [2, 4]: 0.7 M 0.28%

CC[N+](CC)(CC)CCOC.[Br-] [Compound 2, (2-methoxyethyl)-triethylammonium bromide]
Free Br2 [2, 4]: 0.658% and 0.7 M 0.658% | Free Br2 [2, 5]: 0.467% and 0.8 M 0.467%

CC[N+](C)(CC)CCOC.[Br-] [Compound 4, diethylmethyl-(2-methoxyethyl)ammonium bromide]
Free Br2 [2, 4]: 0.7 M 0.70%

CCC[N+](CC)(CC)CC.[Br-] [Compound 5, triethylpropylammonium bromide]
Solubility in ZnBr2 Cloud Point [1]: 0.7 M, 41.2 C. | Free Br2 [2, 4]: 0.089% and 0.7 M 0.089%

CC[N+]1(CC)CCCCC1.[Br-] [Compound 9, Diethyl Piperidinium Bromide]
Solubility in ZnBr2 Cloud Point [1]: 0.7 M, 11.9 C. | Free Br2 [2, 5]: 0.26% and 0.8 M 0.26%

CCC[N+]1(CC)CCCCC1 [Compound 10, EthyPropyl Piperidinium Bromide]
Solubility in ZnBr2 Cloud Point [1]: 0.7 M, 45.8 C. | Free Br2 [2, 5]: 0.026% and 0.8 M 0.026%

CC[N+](C)(C)CCOCC[N+](C)(C)CC.[Br-].[Br-] [Compound 14, Dimethylethyl Gemini Quat Bromide with Diethylether Linkage]
Solubility in ZnBr2 Cloud Point [1]: 0.7 M, 48.2 C. | Free Br2 [2, 4]: 0.71% and 0.7 M 0.71%

CC[N+](C)(C)CCCC[N+](C)(C)CC.[Br-].[Br-] [Compound 15, Dimethylethyl Gemini Quat Bromide with Butyl Linkage]
Solubility in ZnBr2 Cloud Point [1]: 0.7 M, 89.2 C. | Free Br2 [2, 4]: 0.59% and 0.7 M 0.59%

CCC[N+](C)(C)CC.[Br-] [DMEP, dimethylethylpropyl ammonium bromide, reference compound]
cloud point ([1]; solution 0.7M in DMEP and 2.5M in ZnBr2): about 23.2 °C

CCCC[N+]1(C)CCCC1.[Br-] [bromoquat, N-methyl, N-butyl pyrrolidinium bromide]
amount of free bromine present in the electrolyte [3]: 0.25%

CCCC[N+]1(C)CCCC1.[Cl-] [chloroquat, N-methyl, N-butyl pyrrolidinium chloride]
amount of free bromine present in the electrolyte [3]: 0.26%

— US20170162898A1, “Quaternary Ammonium Halides With Ether Functional Groups For Use As Battery Electrolytes” (Albemarle Corporation, priority 2014, published 2017)
